Assay results published in US9765022B2, “Disulfide compounds for delivery of pharmaceutical agents” (Tufts University, priority 2013, dated 2017).

System: 4T1-12B breast tumors
Test: In vivo cancer treatment, tumor growth inhibition
Design: species or system BALB/c mice
Conditions: tail-vein injection every three days, 5.5 mg/kg lipid and 330 μg/kg saporin
Description: Composition 31 (i.e., containing 1-O16B and saporin) and Composition 32 (i.e., containing 1-O18B and saporin) were tested for in vivo inhibiting tumor growth following the procedure described below. More specifically, BALB/c mice bearing 4T1-12B breast tumors were developed from a 4T1-12B cell suspension in DMEM supplemented with 10% FBS at a concentration of 10^7 cells/mL. An aliquot (100 μL) of the cell suspension was injected into the mammary fat pad of 4-6 week-old female BALB/c mice. The mice were sorted into four groups randomly (n=7 for treatment group, n=5 for control groups) seven days after the injection. The mice were injected through tail-vein every three days. For the treatment group, each mouse was injected with 5.5 mg/kg of 1-O16B or 1-O18B and 330 μg/kg of saporin. Tumor volumes were measured every three days.
PBS without 1-O16B, 1-O18B, and saporin was also injected as a control. Comparative studies were also conducted using saporin in PBS without 1-O16B and 1-O18B.

## saporin
Day 16
  tumor size: more than 120 mm^3
Day 22
  tumor size: more than 250 mm^3
